In patent US11661426B2, “Imidazole-containing inhibitors of ALK2 kinase” (BioCryst Pharmaceuticals, Inc., priority 2017, dated 2023) one finds IC50 data, which are given here for 21 compounds.

Each structure is given as a SMILES string.

The target of the assay is ALK2 (Homo sapiens (Human), UniProt Q04771). As to the kind of experiment: ALK2 inhibition, LanthaScreen Eu Kinase Binding Assay (ThermoFisher Scientific / Life Technologies). To be noted: read-out: Measured Ki (IC50) Value for Compounds: IC50. As to the method: Biochemical assays to measure the inhibitory effects of the compounds were performed by ThermoFisher Scientific (Life Technologies). ALK2 inhibition was tested using LanthaScreen™ Eu Kinase Binding Assay screening protocol.
ALK2, sequence (Q04771 21-509): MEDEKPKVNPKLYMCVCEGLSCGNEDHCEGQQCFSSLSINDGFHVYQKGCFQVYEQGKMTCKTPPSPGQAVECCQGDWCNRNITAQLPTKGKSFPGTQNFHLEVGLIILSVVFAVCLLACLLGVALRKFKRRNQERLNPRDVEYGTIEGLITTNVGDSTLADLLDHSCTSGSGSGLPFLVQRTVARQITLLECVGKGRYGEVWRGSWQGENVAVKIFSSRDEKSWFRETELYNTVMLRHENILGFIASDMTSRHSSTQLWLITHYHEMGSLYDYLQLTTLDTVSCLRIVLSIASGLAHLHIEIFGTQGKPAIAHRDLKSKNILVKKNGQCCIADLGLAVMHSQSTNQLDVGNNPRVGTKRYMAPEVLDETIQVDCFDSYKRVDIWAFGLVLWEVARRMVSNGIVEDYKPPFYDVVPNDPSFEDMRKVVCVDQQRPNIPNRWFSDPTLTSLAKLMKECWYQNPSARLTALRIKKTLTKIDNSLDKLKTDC
A general note: TR-FRET usually uses a lanthanide donor and a delayed reading to cut background.

A word on the IC50: it is the point on the concentration scale where inhibition reaches its midpoint. Turning to `OC[C@@H]1CCCN1c1nc(Nc2cn(-c3cn(C4CCC4)cn3)cn2)c2cccn2n1` [Compound 450d, (S)-(1-(4-((1′-cyclobutyl-1′H-[1,4′-biimidazol]-4-yl)amino)pyrrolo[2,1-f][1,2,4]triazin-2-yl)pyrrolidin-2-yl)methanol], the concentration for half-maximal inhibition (IC50) was in the range of 100 to 1000 nM. Under `COc1cc(-n2cnc(Nc3nc(N4CCC[C@H]4C(N)=O)nc4sc(CN5CCN(c6ccccn6)CC5)cc34)c2)cc(OC)c1OC` [Compound 408b, (S)-1-(6-((4-(pyridin-2-yl)piperazin-1-yl)methyl)-4-((1-(3,4,5-trimethoxyphenyl)-1H-imidazol-4-yl)amino)thieno[2,3-d]pyrimidin-2-yl)pyrrolidine-2-carboxamide] stands less than 100 nM; under `c1ccc(C2CCCN2c2nc(Nc3cn(C4CCCC4)cn3)c3cccn3n2)nc1` (stereo not drawn) [Compound 69a, N-(1-cyclopentyl-1H-imidazol-4-yl)-2-(2-(pyridin-2-yl)pyrrolidin-1-yl)pyrrolo[2,1-f][1,2,4]triazin-4-amine], less than 100 nM. For `COc1c(C(C)=O)ccc(-n2cnc(Nc3nc(N4CCC[C@H]4CO)nn4cccc34)c2)c1OC` [Compound 212g, (S)-1-(4-(4-((2-(2-(hydroxymethyl)pyrrolidin-1-yl)pyrrolo[2,1-f][1,2,4]triazin-4-yl)amino)-1H-imidazol-1-yl)-2,3-dimethoxyphenyl)ethanone] the value was less than 100 nM. Regarding `COc1cc(-n2cnc(Nc3nc(N4CCC[C@H]4C(N)=O)nc4cccc(F)c34)c2)cc(OC)c1OC` [Compound 340c, (S)-1-(5-fluoro-4-((1-(3,4,5-trimethoxyphenyl)-1H-imidazol-4-yl)amino)quinazolin-2-yl)pyrrolidine-2-carboxamide], the half-maximal inhibitory concentration (IC50) was in the range of 100 to 1000 nM. For `COc1cc(-n2cnc(Nc3nc(N4CCC[C@H]4CO)nc4ccsc34)c2)cc(OC)c1OC` [Compound 75b, (S)-(1-(4-((1-(3,4,5-trimethoxyphenyl)-1H-imidazol-4-yl)amino)thieno[3,2-d]pyrimidin-2-yl)pyrrolidin-2-yl)methanol] the value was less than 100 nM. For `OC[C@@H]1CCCN1c1nc(Nc2cn([C@H]3CC[C@H](O)CC3)cn2)c2cccn2n1` [Compound 470e, (trans)-4-(4-((2-((S)-2-(hydroxymethyl)pyrrolidin-1-yl)pyrrolo[2,1-f][1,2,4]triazin-4-yl)amino)-1H-imidazol-1-yl)cyclohexanol], the 50% inhibitory concentration (IC50) was 100 to 1000 nM.

As for `COc1cc(-n2cnc(Nc3nc(N4CCC[C@H]4C(N)=O)nc4cc(C(F)(F)F)ccc34)c2)cc(OC)c1OC` [Compound 285a, (S)-1-(7-(trifluoromethyl)-4-((1-(3,4,5-trimethoxyphenyl)-1H-imidazol-4-yl)amino)quinazolin-2-yl)pyrrolidine-2-carboxamide], the concentration for half-maximal inhibition (IC50) was less than 100 nM. As for `COc1cc(-n2cnc(Nc3nc4c(c(N5CCC[C@H]5CO)n3)CS(=O)(=O)CC4)c2)cc(OC)c1OC` [Compound 273c, (S)-4-(2-(hydroxymethyl)pyrrolidin-1-yl)-2-((1-(3,4,5-trimethoxyphenyl)-1H-imidazol-4-yl)amino)-7,8-dihydro-5H-thiopyrano[4,3-d]pyrimidine 6,6-dioxide], the half-inhibitory concentration (IC50) is less than 100 nM. For `COc1cc(-n2cnc(Nc3nc(N4CCC[C@@H]4CO)c4sccc4n3)c2)cc(OC)c1OC` [Compound 310b, (R)-(1-(2-((1-(3,4,5-trimethoxyphenyl)-1H-imidazol-4-yl)amino)thieno[3,2-d]pyrimidin-4-yl)pyrrolidin-2-yl)methanol] the value was less than 100 nM.

On to `COc1cc(-n2cnc(Nc3nc(N4CCC[C@H]4CO)nn4c(CN5CCN(C6CC6)CC5)ccc34)c2)cc(OC)c1OC` [Compound 106b, (S)-(1-(7-((4-cyclopropylpiperazin-1-yl)methyl)-4-((1-(3,4,5-trimethoxyphenyl)-1H-imidazol-4-yl)amino)pyrrolo[2,1-f][1,2,4]triazin-2-yl)pyrrolidin-2-yl)methanol], for which the half-maximal inhibitory concentration (IC50) was less than 100 nM. Under `COc1cc(-n2cnc(Nc3nc4c(c(N5CCC[C@H]5CO)n3)CCCC4)c2)cc(OC)c1OC` [Compound 226c, (S)-(1-(2-((1-(3,4,5-trimethoxyphenyl)-1H-imidazol-4-yl)amino)-5,6,7,8-tetrahydroquinazolin-4-yl)pyrrolidin-2-yl)methanol] stands less than 100 nM. `Cn1cnc(Nc2nc(N3CCCC3c3cccnc3)nn3cccc23)c1` (stereo not drawn) [Compound 19a, N-(1-methyl-1H-imidazol-4-yl)-2-(2-(pyridin-3-yl)pyrrolidin-1-yl)pyrrolo[2,1-f][1,2,4]triazin-4-amine]: the half-maximal inhibitory concentration (IC50) was less than 100 nM. Under `COc1cc(-n2cnc(Nc3nc(-c4cccc(C(N)=O)c4)nn4cccc34)c2)cc(OC)c1OC` [Compound 136a, 3-(4-((1-(3,4,5-trimethoxyphenyl)-1H-imidazol-4-yl)amino)pyrrolo[2,1-f][1,2,4]triazin-2-yl)benzamide] stands less than 100 nM; under `COc1cc(-n2cnc(Nc3nc(N4CCC[C@@H]4C(N)=O)nn4cccc34)c2)cc(OC)c1OC` [Compound 210a, (R)-1-(4-((1-(3,4,5-trimethoxyphenyl)-1H-imidazol-4-yl)amino)pyrrolo[2,1-f][1,2,4]triazin-2-yl)pyrrolidine-2-carboxamide], less than 100 nM; under `COc1cc(-n2cnc(Nc3nc(N4CCC[C@H]4C(N)=O)nn4c(CN5CCNCC5)ccc34)c2)cc(OC)c1OC` [Compound 245c, (S)-1-(7-(piperazin-1-ylmethyl)-4-((1-(3,4,5-trimethoxyphenyl)-1H-imidazol-4-yl)amino)pyrrolo[2,1-f][1,2,4]triazin-2-yl)pyrrolidine-2-carboxamide], less than 100 nM. Under `COc1cc(-n2cnc(Nc3nc4c(c(N5CCC[C@@H]5CO)n3)CCCC4)c2)cc(OC)c1OC` [Compound 264b, (R)-(1-(2-((1-(3,4,5-trimethoxyphenyl)-1H-imidazol-4-yl)amino)-5,6,7,8-tetrahydroquinazolin-4-yl)pyrrolidin-2-yl)methanol] stands less than 100 nM; under `COc1cc(-n2cnc(Nc3nc(N4CCC[C@@H]4CO)nc4cc(N5CCN(C)CC5)ccc34)c2)cc(OC)c1OC` [Compound 383a, (R)-(1-(7-(4-methylpiperazin-1-yl)-4-((1-(3,4,5-trimethoxyphenyl)-1H-imidazol-4-yl)amino)quinazolin-2-yl)pyrrolidin-2-yl)methanol], less than 100 nM; under `COc1cc(-n2cnc(Nc3nc(N4CCC[C@H]4C(N)=O)nc4c3CCNC4)c2)cc(OC)c1OC` [Compound 185b, (S)-1-(4-((1-(3,4,5-trimethoxyphenyl)-1H-imidazol-4-yl)amino)-5,6,7,8-tetrahydropyrido[3,4-d]pyrimidin-2-yl)pyrrolidine-2-carboxamide], less than 100 nM. For `COc1cc(-n2cnc(Nc3nc(N4CCC[C@H]4CO)c4c(C)nn([C@H]5C[C@@H](O)C5)c4n3)c2)cc(OC)c1OC` [Compound 466c, (cis)-3-(4-((S)-2-(hydroxymethyl)pyrrolidin-1-yl)-3-methyl-6-((1-(3,4,5-trimethoxyphenyl)-1H-imidazol-4-yl)amino)-1H-pyrazolo[3,4-d]pyrimidin-1-yl)cyclobutanol] the value was less than 100 nM; for `COc1cc(-n2cnc(Nc3nc(N4CCC[C@H]4CO)c4c(C)nn(C(C)C)c4n3)c2)cc(OC)c1OC` [Compound 456c, (S)-(1-(1-isopropyl-3-methyl-6-((1-(3,4,5-trimethoxyphenyl)-1H-imidazol-4-yl)amino)-1H-pyrazolo[3,4-d]pyrimidin-4-yl)pyrrolidin-2-yl)methanol], less than 100 nM.
